Experimental data reported in US20130330412A1, “SMART POLYMERIC NANOPARTICLES WHICH OVERCOME MULTIDRUG RESISTANCE TO CANCER THERAPEUTICS AND TREATMENT-RELATED SYSTEMIC TOXICITY” (THE JOHNS HOPKINS UNIVERSITY, priority 2010, published 2013).
Blank lines part the entries; values can stand above or below the molecule they belong to.

Legend:
[1] = Solubilization of poorly water soluble drugs in water (FIG. 2); type: physicochemical; details: visual
BxPC3 = assay: In vitro cell viability (MTT) assay with gemcitabine, BxPC3 (FIG. 9); type: cell-based, human; details: BxPC3, 96 hours
Procedure: FIG. 9 illustrates in vitro cell viability (MTT assay) performed using the water-soluble drug gemcitabine conjugated to the acrylic acid (AA) surface reactive functional group of polymeric nanoparticle. Unlike the poorly water drugs that are encapsulated within the nanoparticle, water soluble drugs like gemcitabine can be conjugated to the nanoparticle surface, rendering this compound amenable to oral delivery. Human pancreatic cancer cell line BxPC3 is incubated with increasing dosages of either free gemcitabine (black bar), nano-gemcitabine (white bar), void polymer (grey bar), or PBS solvent (patterned bar). UT=untreated. […] All assays were performed in triplicate and means and standard deviations are plotted.
Gemcitabine is a water soluble compound, and thus differs from the poorly water soluble drugs discussed above that are encapsulated within the hydrophobic core of the polymeric nanoparticles. Herein, we describe the chemical conjugation of gemcitabine, as one illustrative example of water soluble drugs, to the hydrophilic surface of the polymeric nanoparticles. Such conjugation is expected to render gemcitabine amenable to oral delivery, utilizing the oral bioavailability properties of the said polymeric nanoparticles used as a carrier. 10 mg of NMA622 polymeric nanoparticles were dispersed in 10 ml of water by vortexing. […]

[2] = cited from earlier work
C57BL/6 wild-type mice [3] = assay: Glutathione and glutathione peroxidase (GPx) in mouse heart lysates; type: in vivo
Procedure: To evaluate the degree of oxidative stress in treated mice, levels of the antioxidants glutathione and glutathione peroxidase (GPx) were evaluated by western blot and ELISA, respectively, in mouse heart lysates.

C57BL/6 wild-type mice [4] = assay: Hemoglobin and leukocyte counts in cardiotoxicity study (FIG. 16d); type: in vivo; details: 9 mg/kg DOX equivalent i.v. once weekly for 4 weeks
[5] = Blood levels of rapamycin 2 hours after oral delivery (FIG. 10); type: in vivo, C57/B6 mice; details: 15 mg/kg rapamycin equivalent, 2 hours post delivery, HPLC
Text: FIG. 10 illustrates blood levels of rapamycin following oral delivery of polymeric nanoparticles. Rapamycin was encapsulated in nanoparticles comprised of increasing order of acrylic acid (AA) percentage in the co-polymeric composition. The nanoparticles were either administered as is, or after surface PEGylation. Compared are: Control A (rapamycin suspended in water); rapamycin nanoparticle comprised of NIPAAM:VP:AA in a ratio of 60:30:10 (designated as NVA631); rapamycin nanoparticle comprised of NIPAAM:VP:AA in a ratio of 60:20:20 (designated as NVA622); rapamycin nanoparticle comprised of NIPAAM:VP:AA in a ratio of 60:10:30 (designated as NVA613); and rapamycin nanoparticle comprised of NIPAAM:MMA:AA in a ratio of 60:20:20 (designated as NMA622). The corresponding PEGylated nanoparticles (PEG-NVA-631, PEG-NVA-622, PEG-NVA-613, and PEG-NMA-622) encapsulating rapamycin are designated as shaded bars. […] Blood levels are measured by HPLC from samples obtained at 2 hours post oral delivery.
Rapamycin is a poorly water soluble drug that has low oral bioavailability. […] At 2 hours post oral administration, the mice were bled and rapamycin concentrations in the blood were determined by high performance liquid chromatography (HPLC). […]

solubility in water (turbidity / transparency of solution) [1]: essentially insoluble in water
SMILES: CC(=O)O[C@H]1C(=O)[C@@]2(C)[C@H]([C@H](OC(=O)c3ccccc3)[C@]3(O)C[C@H](OC(=O)[C@H](O)[C@@H](NC(=O)c4ccccc4)c4ccccc4)C(C)=C1C3(C)C)[C@]1(OC(C)=O)CO[C@@H]1C[C@@H]2O [free paclitaxel, paclitaxel]

SMILES: Nc1ccn([C@@H]2O[C@H](CO)[C@@H](O)C2(F)F)c(=O)n1 [free gemcitabine, gemcitabine]
activity in cell viability assay (BxPC3): comparable activity

solubility in water (turbidity / transparency of solution) [1]: essentially insoluble in water
SMILES: CO[C@H]1/C=C/O[C@@]2(C)Oc3c(C)c(O)c4c(O)c(c(/C=N/N5CCN(C)CC5)c(O)c4c3C2=O)NC(=O)/C(C)=C\C=C\[C@H](C)[C@H](O)[C@@H](C)[C@@H](O)[C@@H](C)[C@H](OC(C)=O)[C@@H]1C [free rifampicin, rifampicin]

glutathione level (western blot) (C57BL/6 wild-type mice [3]): marked decrease | glutathione peroxidase (GPx) level (ELISA) (C57BL/6 wild-type mice [3]): marked decrease
SMILES: COc1cccc2c1C(=O)c1c(O)c3c(c(O)c1C2=O)C[C@@](O)(C(=O)CO)C[C@@H]3O[C@H]1C[C@H](N)[C@H](O)[C@H](C)O1 [DOX, doxorubicin]
patients developing congestive heart failure (CHF) ([2]; cumulative dose of 550 mg/m2): 26% | frequency of CHF in pediatric acute lymphoblastic leukemia (ALL) patients ([2]; pediatric ALL patients): ≤ 57% | Hemoglobin and leukocyte counts (C57BL/6 wild-type mice [4]): reduced | Hemoglobin (Hb) level, average (C57BL/6 wild-type mice [4]; control 12.5 g/dL): 7.5 g/dL

solubility in water (turbidity / transparency of solution) [1]: essentially insoluble in water | blood levels of rapamycin [5]: essentially undetectable
SMILES: CO[C@H]1C[C@@H]2CC[C@@H](C)[C@@](O)(O2)C(=O)C(=O)N2CCCC[C@H]2C(=O)O[C@H]([C@H](C)C[C@@H]2CC[C@@H](O)[C@H](OC)C2)CC(=O)[C@H](C)/C=C(\C)[C@@H](O)[C@@H](OC)C(=O)[C@H](C)C[C@H](C)/C=C/C=C/C=C/1C [free rapamycin, rapamycin]
